{"source": "ChEMBL document CHEMBL1150031", "about": "“The first selective antagonist for a GABAC receptor” (Bioorg Med Chem Lett, 1996)", "key": {"GABA B receptor": {"molecular_target": "GABA B receptor (Rattus norvegicus, UniProt O88871+Q9Z0U4)", "sequence (Q9Z0U4 whole entry)": "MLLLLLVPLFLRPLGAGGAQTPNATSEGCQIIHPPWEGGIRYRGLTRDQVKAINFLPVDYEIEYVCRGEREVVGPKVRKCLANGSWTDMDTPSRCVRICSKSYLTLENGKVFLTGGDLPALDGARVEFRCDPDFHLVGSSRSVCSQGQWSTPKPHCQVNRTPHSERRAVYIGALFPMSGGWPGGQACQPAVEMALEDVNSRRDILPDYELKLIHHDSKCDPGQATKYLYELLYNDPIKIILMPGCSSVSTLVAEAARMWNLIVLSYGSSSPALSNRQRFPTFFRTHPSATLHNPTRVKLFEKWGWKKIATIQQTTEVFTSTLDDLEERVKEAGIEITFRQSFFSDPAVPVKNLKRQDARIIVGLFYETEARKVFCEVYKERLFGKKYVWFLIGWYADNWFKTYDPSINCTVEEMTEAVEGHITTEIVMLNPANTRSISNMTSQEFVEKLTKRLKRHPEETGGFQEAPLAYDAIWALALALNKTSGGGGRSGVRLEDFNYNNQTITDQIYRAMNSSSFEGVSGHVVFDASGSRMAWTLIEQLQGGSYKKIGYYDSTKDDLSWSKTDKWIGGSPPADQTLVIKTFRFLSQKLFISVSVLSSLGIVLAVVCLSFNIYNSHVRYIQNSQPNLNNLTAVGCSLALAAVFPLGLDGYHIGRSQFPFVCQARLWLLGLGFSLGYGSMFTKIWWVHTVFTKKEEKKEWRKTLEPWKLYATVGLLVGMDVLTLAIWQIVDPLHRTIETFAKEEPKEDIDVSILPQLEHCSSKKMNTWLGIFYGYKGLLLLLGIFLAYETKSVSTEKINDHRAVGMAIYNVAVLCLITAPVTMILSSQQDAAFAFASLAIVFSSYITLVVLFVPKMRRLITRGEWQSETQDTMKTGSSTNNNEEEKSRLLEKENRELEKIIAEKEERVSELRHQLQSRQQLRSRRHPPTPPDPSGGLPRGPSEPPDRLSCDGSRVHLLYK", "sequence (O88871 whole entry)": "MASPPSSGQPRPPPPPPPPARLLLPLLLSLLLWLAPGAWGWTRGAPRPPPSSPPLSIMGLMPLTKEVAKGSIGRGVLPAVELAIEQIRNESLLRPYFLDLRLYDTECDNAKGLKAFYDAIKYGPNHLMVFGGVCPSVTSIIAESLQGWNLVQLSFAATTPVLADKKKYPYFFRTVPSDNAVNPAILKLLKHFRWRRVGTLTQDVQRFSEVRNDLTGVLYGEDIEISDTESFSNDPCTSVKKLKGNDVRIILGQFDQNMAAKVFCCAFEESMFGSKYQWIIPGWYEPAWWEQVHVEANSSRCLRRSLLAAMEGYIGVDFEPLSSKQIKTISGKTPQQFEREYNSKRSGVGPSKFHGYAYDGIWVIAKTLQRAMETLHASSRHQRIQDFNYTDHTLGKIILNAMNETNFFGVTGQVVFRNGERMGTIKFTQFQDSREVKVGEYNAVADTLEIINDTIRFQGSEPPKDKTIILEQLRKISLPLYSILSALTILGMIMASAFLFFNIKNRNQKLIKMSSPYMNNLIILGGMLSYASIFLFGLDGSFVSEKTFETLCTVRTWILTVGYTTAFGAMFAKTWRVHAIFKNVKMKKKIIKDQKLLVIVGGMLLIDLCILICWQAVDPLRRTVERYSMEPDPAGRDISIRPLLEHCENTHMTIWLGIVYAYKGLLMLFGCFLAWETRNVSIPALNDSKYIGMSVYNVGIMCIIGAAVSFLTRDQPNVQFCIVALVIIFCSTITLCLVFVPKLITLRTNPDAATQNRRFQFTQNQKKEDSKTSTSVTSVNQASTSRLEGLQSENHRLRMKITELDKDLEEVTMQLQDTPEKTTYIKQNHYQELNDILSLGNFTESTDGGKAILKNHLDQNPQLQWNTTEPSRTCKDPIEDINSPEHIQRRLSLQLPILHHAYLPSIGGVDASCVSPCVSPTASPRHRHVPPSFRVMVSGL", "experiment": "Inhibition of rat hippocampal Gamma-aminobutyric acid type B receptor (weak agonist)", "assay_type": "functional, tissue-based, Hippocampus"}, "[1]": {"experiment": "Inhibition of rat brain Gamma-aminobutyric acid A (GABA-A) receptor expressed in oocytes, weak antagonist", "assay_type": "functional", "settings": "Oocyte"}, "[2]": {"molecular_target": "T1, GABA-C receptor (Homo sapiens) (UniProt P28476+A8MPY1+P24046)", "T1 sequence (A8MPY1 whole entry, looked up)": "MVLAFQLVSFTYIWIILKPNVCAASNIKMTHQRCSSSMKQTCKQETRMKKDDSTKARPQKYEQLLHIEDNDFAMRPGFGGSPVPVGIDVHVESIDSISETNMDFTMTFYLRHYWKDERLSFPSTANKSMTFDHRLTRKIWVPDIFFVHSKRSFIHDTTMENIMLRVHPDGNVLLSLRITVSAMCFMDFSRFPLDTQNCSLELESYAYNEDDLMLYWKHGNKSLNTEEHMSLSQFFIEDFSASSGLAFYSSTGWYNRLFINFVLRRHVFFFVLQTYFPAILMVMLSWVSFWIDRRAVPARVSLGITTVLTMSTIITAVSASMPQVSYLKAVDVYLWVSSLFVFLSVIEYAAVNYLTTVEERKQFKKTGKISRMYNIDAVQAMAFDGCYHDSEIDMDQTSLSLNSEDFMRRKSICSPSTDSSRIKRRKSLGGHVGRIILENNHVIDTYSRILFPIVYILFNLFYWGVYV", "T1 sequence (P24046 whole entry, looked up)": "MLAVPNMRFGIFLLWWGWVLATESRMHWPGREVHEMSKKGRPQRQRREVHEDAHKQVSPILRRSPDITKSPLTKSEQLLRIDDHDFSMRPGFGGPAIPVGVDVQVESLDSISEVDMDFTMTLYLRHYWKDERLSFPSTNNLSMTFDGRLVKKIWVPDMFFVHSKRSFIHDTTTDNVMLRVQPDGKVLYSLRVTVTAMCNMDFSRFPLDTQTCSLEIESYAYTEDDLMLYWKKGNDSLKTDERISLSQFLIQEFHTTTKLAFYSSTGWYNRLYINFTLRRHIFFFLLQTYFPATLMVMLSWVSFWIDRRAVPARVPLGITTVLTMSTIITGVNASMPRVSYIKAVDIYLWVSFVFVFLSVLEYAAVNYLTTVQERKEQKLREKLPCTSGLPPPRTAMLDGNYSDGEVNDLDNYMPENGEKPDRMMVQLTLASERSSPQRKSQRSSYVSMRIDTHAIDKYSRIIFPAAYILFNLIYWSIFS", "T1 sequence (P28476 whole entry, looked up)": "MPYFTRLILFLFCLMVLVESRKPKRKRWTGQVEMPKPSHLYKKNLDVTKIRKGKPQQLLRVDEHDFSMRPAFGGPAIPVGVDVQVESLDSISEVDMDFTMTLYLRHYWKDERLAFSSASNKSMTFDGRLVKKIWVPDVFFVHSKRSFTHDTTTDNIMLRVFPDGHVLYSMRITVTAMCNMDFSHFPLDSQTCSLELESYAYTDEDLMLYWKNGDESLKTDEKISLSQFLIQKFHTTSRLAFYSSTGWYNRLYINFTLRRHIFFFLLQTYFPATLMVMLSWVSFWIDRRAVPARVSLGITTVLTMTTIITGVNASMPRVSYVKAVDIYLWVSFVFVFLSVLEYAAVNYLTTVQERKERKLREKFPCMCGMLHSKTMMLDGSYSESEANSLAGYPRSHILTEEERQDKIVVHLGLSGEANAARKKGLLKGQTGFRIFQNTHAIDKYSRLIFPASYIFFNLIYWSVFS", "experiment": "Inhibition of human Gamma-aminobutyric acid type C (GABA-C) receptor, potent antagonist", "assay_type": "functional"}, "[3]": {"molecular_target": "T1, GABA-C receptor (Homo sapiens)", "experiment": "Inhibition of mammalian Gamma-aminobutyric acid type C (GABA-C) receptor, potent antagonist", "assay_type": "functional"}, "[4]": {"molecular_target": "GABA-A receptor; anion channel (Homo sapiens) (UniProt P14867+P47870+P18507+P28472+P48169+Q99928+Q9UN88+P34903+O00591+O14764+Q8N1C3+P18505+P78334+P47869+P31644+Q16445)", "experiment": "Inhibition of mammalian Gamma-aminobutyric acid A (GABA-A) receptor (inactive)", "assay_type": "protein-complex assay"}, "[5]": {"molecular_target": "T1, GABA-C receptor (Homo sapiens)", "experiment": "Inhibition of mammalian Gamma-aminobutyric acid type C (GABA-C) receptor, partial agonist", "assay_type": "functional"}, "[6]": {"molecular_target": "GABA-A receptor; anion channel", "experiment": "Inhibition of mammalian Gamma-aminobutyric acid A (GABA-A) receptor, agonist", "assay_type": "functional"}, "[7]": {"molecular_target": "GABA-B receptor (Homo sapiens) (UniProt Q9UBS5+O75899)", "experiment": "Inhibition of mammalian Gamma-aminobutyric acid type B receptor (Inactive)", "assay_type": "protein-complex assay"}}, "note": "Active and inactive are the calls of the source. No cut-off for these calls is given here.", "data": [{"smiles": "CP(=O)(O)C1=CCNCC1", "values": [{"measurement": "EC50", "setting": "GABA B receptor", "result": 500, "unit": "µM"}, {"measurement": "Kb", "setting": "[1]", "result": 320, "unit": "µM"}, {"measurement": "Kb", "setting": "[2]", "result": 2.1, "unit": "µM"}]}, {"smiles": "CP(=O)(O)CCCN", "values": [{"measurement": "Kb", "setting": "[3]", "result": 0.8, "unit": "µM"}, {"measurement": "Activity", "setting": "[4]", "result": "inactive"}]}, {"smiles": "O=C(O)C1=CCNCC1", "note": "[ISOGUVACINE]", "values": [{"measurement": "Kb", "setting": "[5]", "result": 99, "unit": "µM"}, {"measurement": "EC50", "setting": "[6]", "result": 310, "unit": "µM"}, {"measurement": "Activity", "setting": "[7]", "result": "inactive"}]}]}
